Experimental findings from ChEMBL document CHEMBL1201862, “PubChem BioAssay data set” (2004) are described below.

Assay [1] concerns the target Megakaryocyte-associated tyrosine-protein kinase (Homo sapiens, UniProt P42679). The assay is classed as functional.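 Further: affinity measured as one member of a kinase panel (Navigating the Kinome) against MATK.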
Assay [2] has as its target Dual specificity protein kinase CLK2 (Homo sapiens, UniProt P49760). The assay is classed as functional.
For assay [3], the target named is cGMP-dependent protein kinase 1 (Homo sapiens, UniProt Q13976). The format is functional.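 Further: value from a kinome panel screen with PRKG1 as the panel member.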
For assay [4], the target named is Serine/threonine-protein kinase TBK1 (Homo sapiens, UniProt Q9UHD2). The experiment in a line: Navigating the Kinome. Panel member name: TBK1. The assay is classed as functional.
Sequence of Serine/threonine-protein kinase TBK1 (Q9UHD2 whole entry): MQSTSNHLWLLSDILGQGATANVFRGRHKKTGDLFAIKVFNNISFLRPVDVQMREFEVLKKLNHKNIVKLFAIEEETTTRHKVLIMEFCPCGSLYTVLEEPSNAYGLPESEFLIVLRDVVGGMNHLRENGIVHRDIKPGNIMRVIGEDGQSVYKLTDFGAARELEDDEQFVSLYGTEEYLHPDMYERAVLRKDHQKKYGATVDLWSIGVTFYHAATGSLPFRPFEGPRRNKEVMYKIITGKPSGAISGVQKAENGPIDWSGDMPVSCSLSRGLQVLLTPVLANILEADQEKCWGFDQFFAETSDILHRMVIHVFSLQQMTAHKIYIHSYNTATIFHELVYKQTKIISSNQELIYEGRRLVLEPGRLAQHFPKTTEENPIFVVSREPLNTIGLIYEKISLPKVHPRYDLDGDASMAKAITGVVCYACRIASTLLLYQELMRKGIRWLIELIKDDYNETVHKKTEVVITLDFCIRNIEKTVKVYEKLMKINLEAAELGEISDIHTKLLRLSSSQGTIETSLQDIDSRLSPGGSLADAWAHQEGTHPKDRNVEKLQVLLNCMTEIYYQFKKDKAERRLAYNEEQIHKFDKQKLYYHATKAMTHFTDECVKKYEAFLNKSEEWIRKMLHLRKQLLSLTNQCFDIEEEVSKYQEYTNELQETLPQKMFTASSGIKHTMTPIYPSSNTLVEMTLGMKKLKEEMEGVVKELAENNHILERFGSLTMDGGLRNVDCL
In assay [5] the target is 5'-AMP-activated protein kinase catalytic subunit alpha-1 (Homo sapiens, UniProt Q13131). The assay is classed as functional.
Assay [6] deals with Protein kinase C delta type (Homo sapiens, UniProt Q05655). The assay is classed as functional.
Sequence of Protein kinase C delta type (Q05655 whole entry): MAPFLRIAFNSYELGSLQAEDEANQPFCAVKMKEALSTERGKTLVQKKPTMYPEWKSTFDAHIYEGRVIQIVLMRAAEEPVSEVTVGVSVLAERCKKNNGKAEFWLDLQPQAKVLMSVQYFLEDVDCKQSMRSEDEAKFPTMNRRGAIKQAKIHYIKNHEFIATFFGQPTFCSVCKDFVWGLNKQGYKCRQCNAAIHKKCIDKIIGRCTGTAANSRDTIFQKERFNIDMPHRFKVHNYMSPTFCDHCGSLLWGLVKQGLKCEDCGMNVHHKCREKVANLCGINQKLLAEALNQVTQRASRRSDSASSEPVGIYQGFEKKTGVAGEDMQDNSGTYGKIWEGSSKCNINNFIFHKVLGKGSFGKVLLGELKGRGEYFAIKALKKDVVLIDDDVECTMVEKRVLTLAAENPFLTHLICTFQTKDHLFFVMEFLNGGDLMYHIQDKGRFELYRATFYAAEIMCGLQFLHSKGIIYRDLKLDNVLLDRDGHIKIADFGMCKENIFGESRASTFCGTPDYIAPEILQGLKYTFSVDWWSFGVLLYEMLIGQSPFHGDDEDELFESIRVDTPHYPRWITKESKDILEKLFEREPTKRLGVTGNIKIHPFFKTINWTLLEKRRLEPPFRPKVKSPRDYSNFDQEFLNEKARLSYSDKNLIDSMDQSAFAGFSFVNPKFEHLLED
The target of assay [7] is Serine/threonine-protein kinase D2 (Homo sapiens, UniProt Q9BZL6). The assay is classed as functional.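 Further: measured against PRKD2 as one member of a kinome-wide kinase profiling panel.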
Assay [8] has as its target Calcium/calmodulin-dependent protein kinase type II subunit gamma (Homo sapiens, UniProt Q13555). The assay is classed as functional.
Assay [9] addresses Tyrosine-protein kinase receptor TYRO3 (Homo sapiens, UniProt Q06418). The format is functional.
The target in assay [10] is Serine/threonine-protein kinase D3 (Homo sapiens, UniProt O94806). The format is functional.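 Further: determined within a kinase panel screen, with PRKCN as the panel member.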
Sequence of Serine/threonine-protein kinase D3 (O94806 whole entry): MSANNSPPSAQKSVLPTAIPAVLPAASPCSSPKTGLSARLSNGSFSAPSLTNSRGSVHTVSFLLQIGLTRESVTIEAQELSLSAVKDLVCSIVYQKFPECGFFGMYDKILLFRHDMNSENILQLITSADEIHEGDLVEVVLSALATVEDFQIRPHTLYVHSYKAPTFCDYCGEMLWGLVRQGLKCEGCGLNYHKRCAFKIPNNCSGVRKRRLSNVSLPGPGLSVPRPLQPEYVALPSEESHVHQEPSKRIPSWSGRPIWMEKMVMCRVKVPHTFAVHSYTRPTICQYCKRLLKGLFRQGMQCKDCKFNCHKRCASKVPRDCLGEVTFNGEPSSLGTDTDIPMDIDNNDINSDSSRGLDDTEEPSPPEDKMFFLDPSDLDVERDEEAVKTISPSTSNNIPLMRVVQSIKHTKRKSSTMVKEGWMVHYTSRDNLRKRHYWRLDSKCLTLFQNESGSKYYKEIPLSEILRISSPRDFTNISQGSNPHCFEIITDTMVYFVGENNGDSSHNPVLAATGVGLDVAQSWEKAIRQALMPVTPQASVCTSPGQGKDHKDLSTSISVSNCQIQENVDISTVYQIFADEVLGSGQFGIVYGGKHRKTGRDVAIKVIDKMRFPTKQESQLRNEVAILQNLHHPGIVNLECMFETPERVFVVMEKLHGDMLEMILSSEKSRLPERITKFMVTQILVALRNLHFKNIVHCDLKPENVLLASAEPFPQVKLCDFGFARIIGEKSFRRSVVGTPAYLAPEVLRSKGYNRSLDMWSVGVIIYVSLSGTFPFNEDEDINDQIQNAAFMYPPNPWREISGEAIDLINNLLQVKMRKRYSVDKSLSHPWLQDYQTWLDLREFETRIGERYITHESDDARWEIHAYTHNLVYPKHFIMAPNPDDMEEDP
In assay [11] the target is Casein kinase II subunit alpha (Homo sapiens, UniProt P68400). The assay is classed as functional.
The target of assay [12] is Serine/threonine-protein kinase PAK 1 (Homo sapiens, UniProt Q13153). The assay is classed as functional.
The target in assay [13] is Tyrosine-protein kinase JAK3 (Homo sapiens, UniProt P52333). The format is functional.
Assay [14] concerns the target Mitogen-activated protein kinase 9 (Homo sapiens, UniProt P45984). The assay is classed as functional.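 Further: value from a kinome panel profiling assay, MAPK9 panel entry.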
For assay [15], the target named is Tyrosine-protein kinase Blk (Homo sapiens, UniProt P51451). The format is functional.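 Further: obtained as one member of a kinome-wide kinase assay panel.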
Assay [16] deals with Testis-specific serine/threonine-protein kinase 1 (Homo sapiens, UniProt Q9BXA7). The format is functional.
The target of assay [17] is MAP/microtubule affinity-regulating kinase 3 (Homo sapiens, UniProt P27448). The format is functional.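 Further: MARK3 affinity measured as one member of a kinome panel.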
Assay [18] addresses Mitogen-activated protein kinase 13 (Homo sapiens, UniProt O15264). The assay is classed as functional.
In assay [19] the target is Protein kinase C gamma type (Homo sapiens, UniProt P05129). The format is functional.
The target in assay [20] is Proto-oncogene tyrosine-protein kinase Src (Homo sapiens, UniProt P12931). The format is functional.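 Further: SRC entry within a kinome-wide kinase profiling panel.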
Sequence of Proto-oncogene tyrosine-protein kinase Src (P12931 2-536 limits assumed): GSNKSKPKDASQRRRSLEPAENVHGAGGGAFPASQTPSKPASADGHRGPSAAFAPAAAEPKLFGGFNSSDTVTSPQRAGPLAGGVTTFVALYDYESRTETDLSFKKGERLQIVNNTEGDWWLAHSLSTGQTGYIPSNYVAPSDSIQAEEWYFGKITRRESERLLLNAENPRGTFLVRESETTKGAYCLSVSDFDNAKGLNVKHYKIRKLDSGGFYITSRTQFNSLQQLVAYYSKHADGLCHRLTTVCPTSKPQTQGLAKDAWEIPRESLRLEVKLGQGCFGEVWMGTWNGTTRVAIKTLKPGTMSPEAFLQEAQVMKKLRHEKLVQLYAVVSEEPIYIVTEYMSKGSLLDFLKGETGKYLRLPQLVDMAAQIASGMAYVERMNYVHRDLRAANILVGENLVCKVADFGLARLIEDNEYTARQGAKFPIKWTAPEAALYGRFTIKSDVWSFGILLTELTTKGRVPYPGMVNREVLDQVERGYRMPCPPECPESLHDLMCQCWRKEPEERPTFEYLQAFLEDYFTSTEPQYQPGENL
For assay [21], the target named is Receptor tyrosine-protein kinase erbB-2 (Homo sapiens, UniProt P04626). In words: Navigating the Kinome. Panel member name: ERBB2. The assay is classed as functional.
Assay [22] addresses MAP kinase-interacting serine/threonine-protein kinase 2 (Homo sapiens, UniProt Q9HBH9). The assay is classed as functional.
The target of assay [23] is G protein-coupled receptor kinase 5 (Homo sapiens, UniProt P34947). The experiment in a line: Navigating the Kinome. Panel member name: GPRK5. The assay is classed as functional.
The target in assay [24] is Insulin-like growth factor 1 receptor (Homo sapiens, UniProt P08069). The experiment in a line: Navigating the Kinome. Panel member name: IGF1R. The assay is classed as functional.
The target of assay [25] is Mitogen-activated protein kinase 1 (Homo sapiens, UniProt P28482). The format is functional.
Assay [26] has as its target Dual specificity tyrosine-phosphorylation-regulated kinase 1B (Homo sapiens, UniProt Q9Y463). The experiment in a line: Navigating the Kinome. Panel member name: DYRK1B. The format is functional.
Assay [27] has as its target cAMP-dependent protein kinase catalytic subunit PRKX (Homo sapiens, UniProt P51817). The assay is classed as functional.
The target in assay [28] is 3-phosphoinositide-dependent protein kinase 1 (Homo sapiens, UniProt O15530). The assay is classed as functional.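 Further: value comes from the Navigating the Kinome panel, PDPK1 member.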
The target of assay [29] is Cyclin-dependent kinase 8 (Homo sapiens, UniProt P49336). In words: Navigating the Kinome. Panel member name: CDK8. The format is functional.
For assay [30], the target named is Glycogen synthase kinase-3 beta (Homo sapiens, UniProt P49841). The assay is classed as functional.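 Further: value comes from a broad kinome profiling panel, with GSK3B as the panel member.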
The target of assay [31] is cAMP-dependent protein kinase catalytic subunit alpha (Homo sapiens, UniProt P17612). The assay is classed as functional.
Assay [32] deals with Lymphokine-activated killer T-cell-originated protein kinase (Homo sapiens, UniProt Q96KB5). The format is functional.
Assay [33] addresses Serine/threonine-protein kinase BRSK1 (Homo sapiens, UniProt Q8TDC3). The assay is classed as functional.
Assay [34] addresses Dual specificity tyrosine-phosphorylation-regulated kinase 1A (Homo sapiens, UniProt Q13627). The format is functional.
Assay [35] addresses Calcium/calmodulin-dependent protein kinase type II subunit alpha (Homo sapiens, UniProt Q9UQM7). The experiment in a line: Navigating the Kinome. Panel member name: CAMK2A. The format is functional.
Assay [36] concerns the target Serine/threonine-protein kinase 3 (Homo sapiens, UniProt Q13188). The format is functional.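 Further: measured as one member of a kinome-wide kinase panel.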
Assay [37] can be described thus: Trypanosoma cruzi growth suppression in host cells – NIH3T3 host cells, beta-gal luminescence, confirmation (AID 2044).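 Further: intracellular parasites grown in NIH/3T3 mouse fibroblasts as host cells; luminescent beta-galactosidase reporter signal from transgenic T. cruzi replicating inside host cells; inhibitors lower the luminescence signal.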 The assay is classed as functional, cell-based.
In assay [38] the target is Induced myeloid leukemia cell differentiation protein Mcl-1 (Homo sapiens, UniProt Q07820). The assay is classed as functional.
The target of assay [39] is SUMO-activating enzyme (Homo sapiens, UniProt Q9UBT2). In words: blockers of UBC9-mediated SUMO conjugation – biochemical, AlphaScreen, SUMOylation inhibitor project, confirmation (AID 2018). The assay is classed as functional.
Sequence of SUMO-activating enzyme (Q9UBE0 whole entry): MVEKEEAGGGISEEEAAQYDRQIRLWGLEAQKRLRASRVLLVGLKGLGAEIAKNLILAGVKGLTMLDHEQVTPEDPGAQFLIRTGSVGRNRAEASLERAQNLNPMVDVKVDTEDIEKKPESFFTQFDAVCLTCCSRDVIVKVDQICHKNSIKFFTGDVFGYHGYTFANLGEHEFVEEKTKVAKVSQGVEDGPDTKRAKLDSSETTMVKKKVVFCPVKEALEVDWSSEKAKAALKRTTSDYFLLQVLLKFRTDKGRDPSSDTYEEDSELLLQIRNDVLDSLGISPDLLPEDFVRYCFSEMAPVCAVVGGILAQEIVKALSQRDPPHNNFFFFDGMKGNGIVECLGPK
Sequence of SUMO-activating enzyme (Q9UBT2 whole entry): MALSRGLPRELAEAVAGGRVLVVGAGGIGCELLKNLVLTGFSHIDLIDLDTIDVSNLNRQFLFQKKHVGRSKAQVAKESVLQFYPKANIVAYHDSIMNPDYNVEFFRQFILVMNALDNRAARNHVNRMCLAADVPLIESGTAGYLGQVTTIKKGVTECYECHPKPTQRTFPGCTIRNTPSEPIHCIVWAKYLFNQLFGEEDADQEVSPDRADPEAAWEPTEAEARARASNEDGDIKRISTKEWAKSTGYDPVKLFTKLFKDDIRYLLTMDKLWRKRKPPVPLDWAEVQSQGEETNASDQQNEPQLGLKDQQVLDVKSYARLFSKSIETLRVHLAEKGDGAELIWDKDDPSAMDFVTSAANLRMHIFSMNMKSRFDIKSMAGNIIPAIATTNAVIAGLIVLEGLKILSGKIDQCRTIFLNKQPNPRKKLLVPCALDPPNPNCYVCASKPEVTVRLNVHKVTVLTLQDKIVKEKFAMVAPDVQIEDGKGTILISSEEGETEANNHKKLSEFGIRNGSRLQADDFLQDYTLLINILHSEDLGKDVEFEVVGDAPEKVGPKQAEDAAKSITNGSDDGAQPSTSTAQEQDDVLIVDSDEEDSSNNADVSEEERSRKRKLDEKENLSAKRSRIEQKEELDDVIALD

As a reminder, the Ki is the equilibrium dissociation constant of an inhibitor or competing ligand from its target. As a reminder, the EC50 is the concentration at which the effect is half-maximal. As a reminder, the IC50 is the concentration at which inhibition is half-maximal.

Activity calls are given as the source filed them.

Sequence of cAMP-dependent protein kinase catalytic subunit PRKX (P51817 whole entry): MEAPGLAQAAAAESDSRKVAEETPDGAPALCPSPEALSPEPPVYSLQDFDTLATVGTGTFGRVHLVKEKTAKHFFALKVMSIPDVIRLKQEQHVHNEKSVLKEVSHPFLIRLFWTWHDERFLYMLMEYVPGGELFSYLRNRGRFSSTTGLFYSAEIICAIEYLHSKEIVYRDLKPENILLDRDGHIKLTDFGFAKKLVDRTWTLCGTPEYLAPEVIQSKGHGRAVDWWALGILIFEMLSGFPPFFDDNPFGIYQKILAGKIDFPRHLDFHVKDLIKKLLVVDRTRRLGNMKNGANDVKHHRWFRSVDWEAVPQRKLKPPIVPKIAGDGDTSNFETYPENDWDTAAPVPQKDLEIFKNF

For `Clc1cc(-c2c[nH]c3ncccc23)nc(NC2CCCCC2)n1`, the Ki in [1] is > 2000 nM (inactive); in assay [2], > 1260 nM (inactive); in assay [3], 794 nM (active); in assay [4] it was > 3160 nM (inactive); in [5], > 2000 nM (inactive); in assay [6], > 7940 nM (inactive). The Ki in assay [7] was 200 nM (active); in [8], 501 nM (active); in [9], > 2510 nM (inactive); in assay [10] it was > 2000 nM (inactive); in assay [11], 398 nM (active); in [12], > 10000 nM (inactive). For the same compound, the Ki in [13] is > 3160 nM (inactive); in assay [14] it was 3160 nM (active); in assay [15], > 1580 nM (inactive); in assay [16], > 1580 nM (inactive); in [17] it was 158 nM (active); in [18], 1260 nM (active). The Ki was 1000 nM (active) in [19]; > 2000 nM (inactive) in assay [20]; > 1580 nM (inactive) in assay [21]; 79.4 nM (active) in [22]; > 3980 nM (inactive) in assay [23]; > 2000 nM (inactive) in assay [24]. Moreover, the Ki in assay [25] was 398 nM (active); in [26] it was 7.94 nM (active); in assay [27], > 1260 nM (inactive); in [28], > 3980 nM (inactive); in assay [29], 3.98 nM (active); in [30], > 1000 nM (inactive). Also, the Ki is 251 nM (active) in assay [31]; > 10000 nM (inactive) in assay [32]; > 10000 nM (inactive) in assay [33]; 20 nM (active) in [34]; 3160 nM (active) in assay [35]; > 1580 nM (inactive) in assay [36].

In the case of `CCC(=O)NC(c1ccccc1OC)c1ccc2cccnc2c1O` (centres undefined), the 50% effective concentration (EC50) in [37] was 951 nM (active).

On to `O=C(N/N=C/c1ccc(O)cc1O)c1ccc(CN2C(=O)c3cccc4cccc2c34)cc1`, for which the IC50 in assay [38] was 1470 nM (active).

As for `NS(=O)(=O)c1ccc(NC2=CC(=O)C(=O)c3ccccc32)cc1`, the half-maximal inhibitory concentration (IC50) in [39] is 2110 nM (active).
